According to patent US20240383856A1 (Zedira GmbH, priority 2021, published 2024):

Key:
[1] = biological target: T1, recombinant human transglutaminase 2 (Homo sapiens, UniProt P21980); assay: Transglutaminase assay (DCC-assay): incorporation of dansylcadaverine into dimethylcasein; format: biochemical; conditions: recombinant human TG2 10 nM; dansylcadaverine incorporation into dimethylcasein; read-out: IC50 TG2
T1 construct: purchased Zedira T022
T1 sequence (P21980 1-687): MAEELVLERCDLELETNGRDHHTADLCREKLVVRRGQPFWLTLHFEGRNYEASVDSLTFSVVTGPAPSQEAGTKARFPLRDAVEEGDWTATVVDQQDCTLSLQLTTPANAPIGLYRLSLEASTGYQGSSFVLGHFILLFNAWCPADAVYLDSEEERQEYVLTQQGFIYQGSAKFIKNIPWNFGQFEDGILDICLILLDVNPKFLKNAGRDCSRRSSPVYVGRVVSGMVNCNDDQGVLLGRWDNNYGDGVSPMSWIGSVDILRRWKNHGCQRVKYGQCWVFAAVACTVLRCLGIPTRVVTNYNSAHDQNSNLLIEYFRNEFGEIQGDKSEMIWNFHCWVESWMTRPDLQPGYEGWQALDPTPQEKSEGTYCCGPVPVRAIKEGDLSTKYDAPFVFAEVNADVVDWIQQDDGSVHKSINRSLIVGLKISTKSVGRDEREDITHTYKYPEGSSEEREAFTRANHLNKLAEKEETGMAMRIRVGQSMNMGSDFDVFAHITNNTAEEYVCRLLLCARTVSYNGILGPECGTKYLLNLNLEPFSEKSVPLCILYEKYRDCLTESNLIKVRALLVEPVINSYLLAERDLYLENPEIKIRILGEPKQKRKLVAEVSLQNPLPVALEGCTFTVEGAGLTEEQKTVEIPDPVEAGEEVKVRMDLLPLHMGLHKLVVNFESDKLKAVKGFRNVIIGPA
Summary of the method: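 Recombinant human TG2 (10 nM final) incorporates dansylcadaverine into N,N-dimethylcasein. Reaction mix: 50 mM Tris-HCl, 10 mM CaCl2, 10 mM glutathione, 2.5% glycerol, 16.7 µM dansylcadaverine, 4 µM dimethylcasein, 200 mM NaCl, pH 8.0. Fluorescence (ex 330/em 500 nm) was followed 30 min at 37 °C; the 20–30 min slope, expressed as % of 2% DMSO control, gave IC50.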

[2] = logD by shake flask method (octanol / PBS pH 7.4, HPLC); format: physicochemical; conditions: octanol / PBS pH 7.4, shake flask
Summary of the method: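 Shake-flask partition of compound between octanol and phosphate-buffered saline at pH 7.4, with each phase quantified by HPLC to give LogD.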

[3] = Caco-2 permeability assay (CacoReady kit); format: in vitro ADME; conditions: human, Caco-2, Caco-2 barrier, CacoReady kit; above 1×10^−6 cm/s classified as permeable
Summary of the method: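 Apparent permeability coefficients (Papp) were measured across Caco-2 cell barriers using a ready-to-use kit run per the supplier's protocol. Values serve as a predictor of oral/intestinal bioavailability.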

| IC50 [1] [nM] | logD [2] | Papp [3] [×10⁻⁶ cm/s] | Structure (SMILES) |
| --- | --- | --- | --- |
| < 40 | < 1 | 1 to 10 | CNC(=O)C(=O)CC[C@H](NC(=O)c1oc2ccccc2c1C)C(=O)Nc1cccn(CC(=O)NC23CCC(C2)C3)c1=O [II-169, (S)-N1-(1-(2-(bicyclo[2.1.1]hexan-1-ylamino)-2-oxoethyl)-2-oxo-1,2-dihydropyridin-3-yl)-N6-methyl-2-(3-methylbenzofuran-2-carboxamido)-5-oxohexanediamide] |
| 40 to 400 | < 1 | 1 to 10 | CNC(=O)C(=O)CC[C@H](NC(=O)c1cnc(C(C)C)o1)C(=O)Nc1cccn(CC(=O)NC23CCC(C2)C3)c1=O [II-170, (S)-N1-(1-(2-(bicyclo[2.1.1]hexan-1-ylamino)-2-oxoethyl)-2-oxo-1,2-dihydropyridin-3-yl)-2-(2-isopropyloxazole-5-carboxamido)-N6-methyl-5-oxohexanediamide] |
| < 40 | < 1 | 1 to 10 | CNC(=O)C(=O)CC[C@H](NC(=O)c1cc2ccccc2o1)C(=O)Nc1cccn(CC(=O)NC2C3CCCC2CC3)c1=O (stereo partly drawn) [II-171, (2S)-2-(benzofuran-2-carboxamido)-N1-(1-(2-(bicyclo[3.2.1]octan-8-ylamino)-2-oxoethyl)-2-oxo-1,2-dihydropyridin-3-yl)-N6-methyl-5-oxohexanediamide] |
| 40 to 400 | < 1 | 1 to 10 | CNC(=O)C(=O)CC[C@H](NC(=O)c1c(C)noc1C)C(=O)Nc1cccn(CC(=O)NC2C3CCCC2CC3)c1=O (stereo partly drawn) [II-172, (2S)-N1-(1-(2-(bicyclo[3.2.1]octan-8-ylamino)-2-oxoethyl)-2-oxo-1,2-dihydropyridin-3-yl)-2-(3,5-dimethylisoxazole-4-carboxamido)-N6-methyl-5-oxohexanediamide] |
| 40 to 400 | < 1 | < 1 | CNC(=O)C(=O)CC[C@H](NC(=O)c1cncnc1C)C(=O)Nc1cccn(CC(=O)NC2C3CC4CC2CC(C(=O)O)(C4)C3)c1=O (stereo partly drawn) [II-173, (S)-N1-(1-(2-(5-carboxy-2-aminoadamantane)-2-oxoethyl)-2-oxo-1,2-dihydropyridin-3-yl)-N6-methyl-2-(4-methylpyrimidine-5-carboxamido)-5-oxohexanediamide] |
| 40 to 400 | < 1 | < 1 | CNC(=O)C(=O)CC[C@H](NC(=O)C1CCc2ccccc2C1)C(=O)Nc1cccn(CC(=O)NC2C3CC4CC2CC(C(=O)N(C)C)(C4)C3)c1=O (stereo partly drawn) [II-174, (2S)-N1-(1-(2-(4-aminoadamantane-N,N-dimethyl-1-carboxamide)-2-oxoethyl)-2-oxo-1,2-dihydropyridin-3-yl)-N6-methyl-5-oxo-2-(1,2,3,4-tetrahydronaphthalene-2-carboxamido)hexanediamide] |
| 400 to 2500 | 1 to 3 | < 1 | CC(C)(C)NC(=O)C(=O)CC[C@H](NC(=O)[C@@H]1CN2CCN1CC2)C(=O)Nc1cccn(CC(=O)NC2C3CC4CC(C3)CC2C4)c1=O (stereo partly drawn) [II-175, (S)-2-((S)-1,4-diazabicyclo[2.2.2]octane-2-carboxamido)-N6-tert-butyl-N1-(1-(2-(2-adamantylamino)-2-oxoethyl)-2-oxo-1,2-dihydropyridin-3-yl)-5-oxohexanediamide] |
| 400 to 2500 | 3 to 5 | 1 to 10 | CC(C)(C)NC(=O)C(=O)CC[C@H](NC(=O)c1c[nH]c2ccccc12)C(=O)Nc1cccn(CC(=O)NC2C3CC4CC(C3)CC2C4)c1=O (stereo partly drawn) [II-176, (S)-N1-tert-butyl-5-(1H-indole-3-carboxamido)-N6-(1-(2-(2-adamantylamino)-2-oxoethyl)-2-oxo-1,2-dihydropyridin-3-yl)-2-oxohexanediamide] |
| 400 to 2500 | 3 to 5 | 1 to 10 | Cc1cn2c(C(=O)N[C@@H](CCC(=O)C(=O)NC(C)(C)C)C(=O)Nc3cccn(CC(=O)NC4C5CC6CC(C5)CC4C6)c3=O)csc2n1 (stereo partly drawn) [II-177, (S)-N1-tert-butyl-N6-(1-(2-(2-adamantylamino)-2-oxoethyl)-2-oxo-1,2-dihydropyridin-3-yl)-5-(6-methylimidazo[2,1-b]thiazole-3-carboxamido)-2-oxohexanediamide] |
| 40 to 400 | 3 to 5 | 1 to 10 | O=C(Cn1cccc(NC(=O)[C@H](CCC(=O)C(=O)NC2CCCC2)NC(=O)c2nc3ccccc3s2)c1=O)N[C@@H]1C[C@@H]2CC[C@H]1C2 [II-178, (S)-2-(benzo[d]thiazole-2-carboxamido)-N1-(1-(2-((1S,2R,4R)-bicyclo[2.2.1]heptan-2-ylamino)-2-oxoethyl)-2-oxo-1,2-dihydropyridin-3-yl)-N6-cyclopentyl-5-oxohexanediamide] |
| 400 to 2500 | 1 to 3 | 1 to 10 | O=C(Cn1cccc(NC(=O)[C@H](CCC(=O)C(=O)NC2CCCC2)NC(=O)c2cn3ccsc3n2)c1=O)N[C@@H]1C[C@@H]2CC[C@H]1C2 [II-179, (S)-N1-(1-(2-((1S,2R,4R)-bicyclo[2.2.1]heptan-2-ylamino)-2-oxoethyl)-2-oxo-1,2-dihydropyridin-3-yl)-N6-cyclopentyl-2-(imidazo[2,1-b]thiazole-6-carboxamido)-5-oxohexanediamide] |
| 400 to 2500 | 3 to 5 | < 1 | O=C(Cn1cccc(NC(=O)[C@H](CCC(=O)C(=O)NC2CCCC2)NC(=O)c2cnc3ccc(OC(F)(F)F)cc3c2O)c1=O)N[C@@H]1C[C@@H]2CC[C@H]1C2 [II-180, (S)-N1-(1-(2-((1S,2R,4R)-bicyclo[2.2.1]heptan-2-ylamino)-2-oxoethyl)-2-oxo-1,2-dihydropyridin-3-yl)-N6-cyclopentyl-2-(4-hydroxy-6-(trifluoromethoxy)quinoline-3-carboxamido)-5-oxohexanediamide] |
| 400 to 2500 | 1 to 3 | < 1 | O=C(Cn1cccc(NC(=O)[C@H](CCC(=O)C(=O)NC2CCCCC2)NC(=O)c2cc3ccccc3nn2)c1=O)NC12CC(C1)C2 [II-181, (S)-N1-(1-(2-(bicyclo[1.1.1]pentan-1-ylamino)-2-oxoethyl)-2-oxo-1,2-dihydropyridin-3-yl)-2-(cinnoline-3-carboxamido)-N6-cyclohexyl-5-oxohexanediamide] |
| 40 to 400 | 1 to 3 | 1 to 10 | CCc1c(C(=O)N[C@@H](CCC(=O)C(=O)NC2CCCCC2)C(=O)Nc2cccn(CC(=O)NC34CC(C3)C4)c2=O)oc2ccccc12 [II-182, (S)-N1-(1-(2-(bicyclo[1.1.1]pentan-1-ylamino)-2-oxoethyl)-2-oxo-1,2-dihydropyridin-3-yl)-N6-cyclohexyl-2-(3-ethylbenzofuran-2-carboxamido)-5-oxohexanediamide] |
| 40 to 400 | 1 to 3 | 1 to 10 | CCn1c(C(=O)N[C@@H](CCC(=O)C(=O)NC2CCCCC2)C(=O)Nc2cccn(CC(=O)NC34CC(C3)C4)c2=O)cc2ccccc21 [II-183, (S)-N1-(1-(2-(bicyclo[1.1.1]pentan-1-ylamino)-2-oxoethyl)-2-oxo-1,2-dihydropyridin-3-yl)-N6-cyclohexyl-2-(1-ethyl-1H-indole-2-carboxamido)-5-oxohexanediamide] |
| 400 to 2500 | 1 to 3 | < 1 | Cc1nc2ncccc2cc1C(=O)N[C@@H](CCC(=O)C(=O)NC1CCCCC1)C(=O)Nc1cccn(CC(=O)NC23CC(C2)C3)c1=O [II-184, (S)-N1-(1-(2-(bicyclo[1.1.1]pentan-1-ylamino)-2-oxoethyl)-2-oxo-1,2-dihydropyridin-3-yl)-N6-cyclohexyl-2-(2-methyl-1,8-naphthyridine-3-carboxamido)-5-oxohexanediamide] |
| 400 to 2500 | < 1 | < 1 | CNC(=O)C(=O)CC[C@H](NC(=O)c1ccc2c(c1)CCCN2)C(=O)Nc1cccn(CC(=O)NC23CCC(C2)C3)c1=O [II-185, (S)-N1-(1-(2-(bicyclo[2.1.1]hexan-1-ylamino)-2-oxoethyl)-2-oxo-1,2-dihydropyridin-3-yl)-N6-methyl-5-oxo-2-(1,2,3,4-tetrahydroquinoline-6-carboxamido)hexanediamide] |
| 400 to 2500 | < 1 | < 1 | CNC(=O)C(=O)CC[C@H](NC(=O)c1ccc2c(c1)CC(=O)NC2)C(=O)Nc1cccn(CC(=O)NC2(C(=O)O)C3CC4CC2CC(C(F)(F)F)(C4)C3)c1=O (stereo partly drawn) [II-186, (S)-N1-(1-(2-(2-carboxy-2-amino-5-(trifluoromethyl)adamantane)-2-oxoethyl)-2-oxo-1,2-dihydropyridin-3-yl)-N6-methyl-5-oxo-2-(3-oxo-1,2,3,4-tetrahydroisoquinoline-6-carboxamido)hexanediamide] |
